#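 Exposure lasted 48 hours, with cells grown in 96-well plates and compounds tested at five concentrations. At the GI50, growth is halved. TGI: total growth inhibition.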
# Key:
# Experiment in all cases: NCI-60 cell line screen, 48 h
# OVCAR-3 ovarian = system: OVCAR-3 ovarian
# LOX IMVI melanoma = system: LOX IMVI melanoma
# SN12C renal = system: SN12C renal
# RXF 393 renal = system: RXF 393 renal
# NCI/ADR-RES ovarian = system: NCI/ADR-RES ovarian
# SK-OV-3 ovarian = system: SK-OV-3 ovarian
# HCT-116 colon = system: HCT-116 colon
Structure (SMILES),TGI (OVCAR-3 ovarian) [µM],TGI (LOX IMVI melanoma) [µM],TGI (SN12C renal) [µM],TGI (RXF 393 renal) [µM],TGI (NCI/ADR-RES ovarian) [µM],TGI (SK-OV-3 ovarian) [µM],GI50 (OVCAR-3 ovarian) [µM],GI50 (HCT-116 colon) [µM],TGI (HCT-116 colon) [µM],GI50 (LOX IMVI melanoma) [µM],GI50 (SN12C renal) [µM],GI50 (RXF 393 renal) [µM],GI50 (NCI/ADR-RES ovarian) [µM],GI50 (SK-OV-3 ovarian) [µM]
Cn1c2c(c3ccccc31)CCN1C(=O)CCC21 (stereo not drawn),> 10,> 10,> 10,> 10,> 10,> 10,–,–,–,–,–,–,–,–
C=CCC(N[C@@H](CO)c1ccccc1)c1cn(C(=O)OCC)c2ccccc12 (stereo partly drawn),31.7,32.2,39.2,84.2,55.5,> 100,15.8,15.5,29.3,16.7,21.4,22.8,18.9,49.1
CCOc1ccn(-c2ccc(F)cc2)c(=O)c1C(=O)Nc1ccc(Oc2ccnc(N)c2Cl)c(F)c1,> 100,19.3,> 100,36.8,> 65.7,41.6,24.3,5.35,21.8,5.33,5.03,7.06,13.6,11.7
CCOC(=O)C(C#N)C1=CC(=O)C(=O)c2ccc(O)cc21 (stereo not drawn),> 100,> 100,> 100,> 100,> 100,> 100,–,–,> 100,–,–,–,–,–
Cc1cc(Nc2cc(N3CCN(C)CC3)nc(/C=C/c3ccccc3)n2)n[nH]1,> 10,1.51,> 10,1.04,> 10,> 10,1.2,0.201,> 10,0.334,0.62,0.246,2.03,1.35
CO[C@H]1CC(O[C@@H]2/C(C)=C/C[C@@H]3C[C@@H](C[C@]4(CC[C@H](C)[C@@H](C5CCCCC5)O4)O3)OC(=O)[C@@H]3C=C(C)/C(=N/O)[C@H]4OC/C(=C\C=C\[C@@H]2C)[C@]43O)O[C@@H](C)C1O (stereo partly drawn),1.62,1.28,1.85,1.4,2.9,2.86,0.864,0.704,1.4,0.651,0.889,0.728,1.07,1.17
C/C(=C(\c1ccc(OCCN2CCCCCC2)cc1)c1ccc(OC(=O)c2ccccc2)cc1)c1ccc(Cl)cc1,8.49,6.81,9.53,8.18,11.2,9.52,4.06,1.62,6.05,2.43,4.21,3.71,4.56,4.41
COc1cccc(Nc2nc3ccccc3c3occc23)c1,21.2,8.39,35.1,19.8,32.1,22.7,9.1,15.3,34.4,2.32,12.1,4.46,17.9,8.48
CN1CCN(Cc2ccc(NC(=O)c3cncc(C#Cc4cnc(N)c5cccnc45)c3)cc2C(F)(F)F)CC1,> 50,0.686,> 50,2.51,> 50,> 50,0.589,0.224,6.6,0.159,0.311,0.255,> 50,0.203
Cn1c2c(c3c(Cl)nncc31)Cc1ccccc1-2,> 100,> 100,81.7,80.7,44.5,75.1,31,17.9,> 100,20.9,20.8,24.5,16.3,28.6
CC[C@@H](C)/C=C(C)/C=C/C(=O)c1c(O)c(-c2ccc(O)cc2)cn(O)c1=O,13,7.64,12.3,2.25,10.7,21.7,0.395,0.395,13,0.288,0.391,0.22,0.327,0.642
CCNC(=O)Oc1ccc(/C(=C(/C)Cc2ccc(OC)cc2)c2ccc(OCCN(CC)CC)cc2)cc1,3.34,3.22,3.82,3.62,11.5,13.3,1.69,1.57,3.11,1.66,1.93,1.9,2.99,2.84
O=C(O)C1[O][Sb][O]C(C(=O)O)C1O (stereo not drawn),> 100,> 100,> 100,> 100,> 100,–,> 100,> 100,> 100,> 100,> 100,> 100,> 100,–
C/C=C1/CC(C)C(C)(O)C(=O)OCC2C(O)CN3CCC(OC1=O)C23 (stereo not drawn),–,> 100,> 100,> 100,> 100,> 100,–,–,> 100,–,–,–,–,–
CC1=CC(C)(C)NN1C1=NS(=O)(=O)c2ccccc2N1C,> 100,> 100,> 100,> 100,> 100,> 100,–,–,> 100,–,–,–,–,–
CC1NC(=O)C2=C1C(=O)NC(=O)C2 (stereo not drawn),> 100,> 100,> 100,> 100,> 100,–,> 100,> 100,> 100,> 100,> 100,> 100,> 100,–
CN1CCN(C(=O)COc2ccc(/C=C3\CC4C5CC=C6CC(Cl)CCC6(C)C5CCC4(C)C3=O)cc2)CC1 (stereo not drawn),> 100,–,> 100,> 100,> 100,> 100,> 100,3.08,> 100,–,> 100,14.3,> 100,> 100
O=C(c1ccc(Cl)cc1)C(O)c1ccc(Cl)cc1 (stereo not drawn),> 100,> 100,> 100,> 100,> 100,–,–,–,> 100,–,–,–,–,–

# — PubChem BioAssay (NCI)
